Laboratory results taken from patent US11053226B2, “KRAS G12C inhibitors and methods of using the same” (Amgen Inc., priority 2018, dated 2021).
pIC50: −log10 of the molar value. Like-named read-outs stand apart in the source and are kept apart here.

Tests used:
[1] = test system: Phosphorylation of ERK1/2 in MIA PaCa-2 cells; test: Phospho-ERK1/2 MSD Assay; type: cell-based; settings: MiaPaCa-2 cells
[2] = test system: Phosphorylation of ERK1/2 in A549 cells; test: Phospho-ERK1/2 MSD Assay (A549); type: cell-based
[3] = target: GDP-bound KRAS protein (aa 1-169), containing both G12C and C118A amino acid substitutions (Homo sapiens (Human), UniProt P01116, C118A/G12C); test: Coupled Nucleotide Exchange Assay; type: biochemical
Description: For compounds in Table 9, the following assay conditions were employed:
Coupled Nucleotide Exchange Assay:
The assay plates were then read on a PerkinElmer EnVision Multilabel Reader, using AlphaScreen® technology, and data were analyzed using a 4-parameter logistic model to calculate IC50 values.

[4] = Homo sapiens, MIA PaCa-2, read-out: pERK IC50 (4 h), 4 h compound treatment
[5] = Homo sapiens, read-out: pERK IC50 (4 h), 4 h compound treatment
[6] = read-out: Coupled Exchange IC50 (2 h), 2 h compound pre-incubation
[7] = read-out: Coupled Exchange IC50 (20 h), 20 h compound pre-incubation
[8] = Homo sapiens, MIA PaCa-2, 4 h, read-out: pERK IC50 (4 h, MiaPaCa-2), 4 h compound treatment
[9] = Homo sapiens, A549, 4 h, read-out: pERK IC50 (4 h, A549), 4 h compound treatment

Sequence of GDP-bound KRAS protein (aa 1-169), containing both G12C and C118A amino acid substitutions (P01116 other isoform, or with tags, fused parts or gaps G12C/C118A): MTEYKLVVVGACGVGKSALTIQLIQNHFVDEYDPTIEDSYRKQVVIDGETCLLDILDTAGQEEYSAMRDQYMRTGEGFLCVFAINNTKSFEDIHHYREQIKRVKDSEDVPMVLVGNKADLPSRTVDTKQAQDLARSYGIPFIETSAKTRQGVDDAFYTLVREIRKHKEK

SMILES	pIC50 [1, 4]	pIC50 [2, 5]	pIC50 [3, 6]	pIC50 ([3]; read-out: Coupled Exchange IC50 (5 min), 5 min compound pre-incubation)	pIC50 [3, 7]	pIC50 [1, 8]	pIC50 [2, 9]	pIC50 ([1]; read-out: pERK IC50 (4 h, MiaPaCa-2), 4 h compound treatment)	pIC50 ([2]; read-out: pERK IC50 (4 h, A549), 4 h compound treatment)
C=CC(=O)N1CC(NC(=O)Cn2c(C)c(-c3cnccc3C(C)C)c3cc(Cl)ccc32)C1 [Example 5-1, 2-(5-Chloro-2-methyl-3-(4-(2-propanyl)-3-pyridinyl)-1H-indol-1-yl)-N-(1-(2-propenoyl)-3-azetidinyl)acetamide]	5.88	< 4.00	6.11	–	–	–	–	–	–
C=CC(=O)N1CC(NC(=O)Cn2c(C)c(-c3cncnc3C(C)C)c3cc(Cl)ccc32)C1 [Example 5-2, 2-(5-Chloro-2-methyl-3-(4-(2-propanyl)-5-pyrimidinyl)-1H-indol-1-yl)-N-(1-(2-propenoyl)-3-azetidinyl)acetamide]	5.83	< 4.00	5.98	–	–	–	–	–	–
C=CC(=O)N1CC(NC(=O)Cn2c(C)c(-c3ccccc3C(C)C)c3cc(Cl)ccc32)C1 [Example 5-3, 2-(5-Chloro-2-methyl-3-(2-(2-propanyl)phenyl)-1H-indol-1-yl)-N-(1-(2-propenoyl)-3-azetidinyl)acetamide]	5.69	< 4.48	6.20	5.39	6.66	–	–	–	–
C=CC(=O)N1CC(NC(=O)Cn2c(C)c(-c3ccccc3N3CCCC3)c3cc(Cl)ccc32)C1 [Example 5-4, 2-(5-Chloro-2-methyl-3-(2-(1-pyrrolidinyl)phenyl)-1H-indol-1-yl)-N-(1-(2-propenoyl)-3-azetidinyl)acetamide]	5.26	< 4.00	6.42	–	–	–	–	–	–
C=CC(=O)N1CC(NC(=O)Cn2c(C)c(C(=O)N3CCc4c(cccc4OC)C3)c3cc(C)cc(C)c32)C1 [Example 6]	–	–	6.47	–	–	5.95	< 4.00	–	–
C=CC(=O)N1CC(N(C)C(=O)Cn2c(C)c(C(=O)N3CCN(c4ccc(C#N)cn4)C[C@H]3C)c3cc(Br)ccc32)C1 [Example 8]	–	–	6.66	–	–	5.81	< 4.00	–	–
C=CC(=O)N1CC(NC(=O)Cn2c(C)c(C(=O)N3[C@H](C)c4ccc(F)cc4C[C@@H]3C)c3cc(Br)cc(C)c32)C1 [Example 9]	–	–	6.70	–	–	5.81	4.38	–	–
C=CC(=O)N1CC(N(C)C(=O)Cn2c(C)c(C(=O)N3CCN(c4ccc(C(F)(F)F)cn4)CC3)c3cc(Br)ccc32)C1 [Example 10]	–	–	6.09	–	–	5.80	4.36	–	–
C=CC(=O)N1CC(NC(=O)Cn2c(C3CC3)c(C(=O)N3CCCC(C)(C)C3)c3cc(Cl)cc(C)c32)C1 [Example 11]	–	–	6.18	–	–	5.80	4.44	–	–
C=CC(=O)N1CC(NC(=O)Cn2c(C)c(C(=O)N3CCc4c(ccnc4OC)C3)c3cc(Br)ccc32)C1 [Example 12]	–	–	6.29	–	6.77	5.78	< 4.00	–	–
C=CC(=O)N1CC(NC(=O)Cn2c(C)c(C(=O)N3CCc4c(cccc4OC)C3)c3cc(Br)ccc32)C1 [Example 13]	–	–	6.52	–	6.96	5.77	< 4.00	–	–
C=CC(=O)N1CC(NC(=O)Cn2c(C3CC3)c(C(=O)N3CCN(c4ccc(C#N)cn4)CC3)c3cc(Cl)cc(C)c32)C1 [Example 14]	–	–	6.24	–	–	5.77	< 4.00	–	–
C=CC(=O)N1CC(NC(=O)Cn2cc(C(=O)N3CCc4c(ccnc4OC)C3)c3c(Cl)c(Cl)ccc32)C1 [Example 15]	–	–	6.66	–	–	5.75	< 4.00	–	–
C=CC(=O)N1CC(NC(=O)Cn2c(C)c(C(=O)N3CCc4c(cccc4OC)C3)c3cc([N+](=O)[O-])ccc32)C1 [Example 17]	–	–	5.91	–	6.52	–	–	5.74	< 4.00
C=CC(=O)N1CC(NC(=O)Cn2c(C)c(-c3cnccc3C3CC3)c3cc(Cl)ccc32)C1 [Example 18]	5.73	< 4.00	6.01	–	–	–	–	–	–
C=CC(=O)N1CC(N(C)C(=O)Cn2c(C3CC3)c(C(=O)N3CCN(c4ccc(C#N)cn4)CC3)c3cc(Cl)cc(C)c32)C1 [Example 19]	–	–	6.21	–	–	5.73	< 4.00	–	–
